From the supplement of paper PMC10307832

How the values were obtained:
Assay in all cases: relative viability (nuclei count vs DMSO), 5 days (fraction); higher = more cells survive
[1] = compound: CC1=C(C=CC(=C1)[N+](=O)[O-])NS(=O)(=O)C2=C(C=CC(=C2)Cl)Cl [FH535] + Cc1cc(Nc2cc(N3CCN(C)CC3)nc(Sc3ccc(NC(=O)C4CC4)cc3)n2)n[nH]1 [Tozasertib] (partner 0.1 µM)
Method in brief: (§1)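 One day after seeding in 1536-well plates, lung cancer cell lines were dosed by pin tool. Dosing was either single-drug or a fixed anchor-drug dose plus five library-drug doses (not always all listed) in √10 steps. After 5 days, nuclei were stained in one fix-and-stain step and counted on 4× images, and relative viability is the nuclei count of treated wells over that of vehicle wells, given as the median of duplicate plates.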

[2] = compound: CC1=C(C=CC(=C1)[N+](=O)[O-])NS(=O)(=O)C2=C(C=CC(=C2)Cl)Cl [FH535] + COc1cccc2cc(-c3nc([C@H]4CC[C@H](C(=O)O)CC4)n4ncnc(N)c34)[nH]c12 [OSI-027] (partner 0.5 µM)
Method in brief: as §1

[3] = compound: CC1=C(C=CC(=C1)[N+](=O)[O-])NS(=O)(=O)C2=C(C=CC(=C2)Cl)Cl [FH535] + CC1(C)CCC(c2ccc(Cl)cc2)=C(CN2CCN(c3ccc(C(=O)NS(=O)(=O)c4ccc(N[C@H](CCN5CCOCC5)CSc5ccccc5)c(S(=O)(=O)C(F)(F)F)c4)cc3)CC2)C1 [Navitoclax] (partner 0.5 µM)
Method in brief: as §1

[4] = compound: CC1=C(C=CC(=C1)[N+](=O)[O-])NS(=O)(=O)C2=C(C=CC(=C2)Cl)Cl [FH535] + O=C(c1cc(Cc2n[nH]c(=O)c3ccccc23)ccc1F)N1CCN(C(=O)C2CC2)CC1 [Olaparib] (partner 8 µM)
Method in brief: as §1

[5] = compound: CC1=C(C=CC(=C1)[N+](=O)[O-])NS(=O)(=O)C2=C(C=CC(=C2)Cl)Cl [FH535] + CC(=O)Nc1cccc(-n2c(=O)n(C3CC3)c(=O)c3c(Nc4ccc(I)cc4F)n(C)c(=O)c(C)c32)c1 [Trametinib] (partner 0.02 µM)
Method in brief: as §1

| Cell Line | relative viability ([1]; first compound 0.04 µM) | relative viability ([1]; first compound 0.1265 µM) | relative viability ([1]; first compound 0.4 µM) | relative viability ([1]; first compound 1.265 µM) | relative viability ([2]; first compound 0.04 µM) | relative viability ([2]; first compound 0.1265 µM) | relative viability ([2]; first compound 0.4 µM) | relative viability ([2]; first compound 1.265 µM) | relative viability ([3]; first compound 0.04 µM) | relative viability ([3]; first compound 0.1265 µM) | relative viability ([3]; first compound 0.4 µM) | relative viability ([3]; first compound 1.265 µM) | relative viability ([4]; first compound 0.04 µM) | relative viability ([4]; first compound 0.1265 µM) | relative viability ([4]; first compound 0.4 µM) | relative viability ([4]; first compound 1.265 µM) | relative viability ([5]; first compound 0.04 µM) | relative viability ([5]; first compound 0.1265 µM) | relative viability ([5]; first compound 0.4 µM) | relative viability ([5]; first compound 1.265 µM) |
| --- | --- | --- | --- | --- | --- | --- | --- | --- | --- | --- | --- | --- | --- | --- | --- | --- | --- | --- | --- | --- |
| 201T | 0.919 | 0.953 | 0.976 | 0.743 | 0.728 | 0.484 | 0.719 | 0.538 | 1.2 | 1.19 | 1.18 | 1.16 | 0.812 | 0.856 | 0.827 | 0.59 | 0.718 | 0.72 | 0.69 | 0.562 |
| A549 | – | – | – | – | – | – | – | – | 1.28 | 1.16 | 1.25 | 0.936 | 0.28 | 0.306 | 0.284 | 0.299 | – | – | – | – |
| A-427 | 0.175 | 0.205 | 0.243 | 0.159 | 0.368 | 0.496 | 0.378 | 0.43 | 0.968 | 0.928 | 0.839 | 0.865 | 0.799 | 0.774 | 0.731 | 0.513 | 0.712 | 0.752 | 0.675 | 0.61 |
| ABC-1 | 0.181 | 0.216 | 0.218 | 0.217 | 0.446 | 0.418 | 0.452 | 0.414 | – | – | – | – | 0.705 | 0.896 | 0.94 | 0.37 | – | – | – | – |
| BEN | 0.547 | 0.483 | 0.483 | 0.487 | 0.287 | 0.281 | 0.313 | 0.27 | 0.0691 | 0.0603 | 0.0578 | 0.0625 | 1.02 | 1.1 | 0.831 | 0.636 | 0.931 | 0.99 | 0.948 | 0.666 |
| CAL-12T | 0.288 | 0.324 | 0.243 | 0.212 | 0.63 | 0.688 | 0.504 | 0.407 | 1.16 | 1.11 | 1.12 | 0.654 | 0.693 | 0.813 | 0.612 | 0.411 | 0.336 | 0.438 | 0.367 | 0.347 |
| COR-L23 | 0.183 | 0.17 | 0.185 | 0.167 | 0.778 | 0.621 | 0.643 | 0.408 | 0.992 | 1.14 | 0.886 | 0.567 | 0.375 | 0.35 | 0.309 | 0.244 | 0.52 | 0.604 | 0.515 | 0.371 |
| COR-L 105 | 0.359 | 0.339 | 0.337 | 0.304 | 0.691 | 0.701 | 0.613 | 0.608 | 0.725 | 0.864 | 0.702 | 0.637 | 0.693 | 0.699 | 0.747 | 0.648 | 0.483 | 0.404 | 0.422 | 0.444 |
